Test results reported in US9352050B2, “Processes for preparing peptide conjugates and linkers” (PFIZER INC., priority 2011, dated 2016).
Blank lines part the entries; values can stand above or below the compound they belong to.

Assays:
Format in all cases: physicochemical
[1] = Degradation of peptide 3b in the conjugation mixture; conditions: higher temperatures (30-35° C.) and higher pH (about pH7.5)
Procedure: In order to investigate the impact of different conjugation reaction variables on the reaction rate, product quality and yield, a set of experiments were executed using design of experiments (DOE) approach. Three parameters were chosen for evaluation: pH of the conjugation mixture, temperature of the conjugation and the ratio of peptide to starting antibody. Other parameters such as composition of the buffer solution (20 mM histidine buffer), antibody concentration (16.7 mg/mL) and concentration of DMSO in solution (7%) were kept constant. The centre point for each parameter was pH6.5, 20° C. and a peptide:antibody ratio of 2.4:1. The low levels tested were pH5.5, 5° C. and a ratio of 1.8, and the high levels were pH7.5, 35° C. and a ratio of 3.
Several experiments whose variable values were at the center-point of all the parameter ranges were selected to provide information on possible non-linear effects. The protocol for these experiments was briefly as follows: Peptide 3b (25 mg) was placed in a 20 mL vial equipped with a magnetic stir bar. The solid was dissolved in DMSO (2.1 mL). Histidine buffer (20 mM, pH 6.5, 2.1 mL) was added to the solution. […] The reaction was monitored for completion by SEC and HIC chromatography methods. […] The in-situ yield of 5 and time of reaction completion (hours) were evaluated by HIC and SEC chromatographic methods. […]

[2] = Solubility and dissolution of peptide-linker conjugate and peptide in solvents and buffers
Excerpt: The process for the formation of the drug substance 5 was originally described in U.S. Pat. No. 8,288,349 whose contents are hereby incorporated. The original process involved use of propylene glycol as the cosolvent in the conjugation process between peptide-linker 3 and the antibody h38C2. […] The more amorphous solid form is usually more soluble in different solvents and buffer solutions. […] During preparation of bioconjugate 5, it is desirable to have a conjugation mixture as a homogeneous solution at the beginning of the reaction in order to afford consistent reaction kinetics and more robust manufacturing process.
In the original process, propylene glycol was used as a cosolvent primarily to assist in the dispersion of the hydrophobic peptide-linker 3b in the aqueous histidine buffer solution at pH 6.5.

[3] = Storage stability of activated esters of acid 6 at room temperature; conditions: solid, in contact with air
Excerpt: This cyclic byproduct became the major constituent of the isolated solid after only a few days at RT. Since this side-reaction was envisioned to become even more problematic on scale due to the longer timelines for processing and isolation, a search for an alternative activating group for acid 6 was undertaken.

Degradation rate [1]: occurs at a faster rate
Solubility in propylene glycol [2]: very low solubility
Solubility in solvents other than DMSO [2]: limited solubility
solubility ([2]; Solubility in DMSO): ≥ 100 mg/mL
Compound: CSCC[C@H](NC(=O)[C@H](Cc1ccccc1)NC(=O)[C@H](CCC(N)=O)NC(=O)[C@H](CC(=O)O)NC(=O)[C@H](Cc1ccc(O)cc1)NC(=O)[C@H](CC(C)C)NC(=O)[C@@H](NC(=O)[C@H](CCCCNC(=O)COCC(=O)Nc1ccc(CCC(=O)N2CCC2=O)cc1)NC(=O)[C@H](CC(=O)O)NC(=O)[C@H](CCCCNC(C)=O)NC(=O)[C@H](CCC(=O)O)NC(=O)[C@H](CC(=O)O)NC(=O)[C@H](CC(C)C)NC(=O)[C@@H]1CCCN1C(=O)[C@H](CCC(N)=O)NC(=O)[C@H](Cc1ccc(O)cc1)NC(=O)[C@H](CCCCNC(C)=O)NC(=O)[C@H](CCC(N)=O)NC(C)=O)C(C)O)C(=O)N[C@@H](CC(C)C)C(=O)N[C@@H](CCC(N)=O)C(=O)N[C@@H](CCC(N)=O)C(=O)NCC(N)=O (stereo partly drawn) [3b]

Compound: CC(=O)NCCCC[C@H](N)C(=O)O [compound 2]
solubility ([2]; MeCN or MeOH): low solubility

Compound: O=C(COCC(=O)ON1C(=O)CCC1=O)Nc1ccc(CCC(=O)N2CCC2=O)cc1 [compound 8]
Storage stability [3]: increasing amounts of the second component were noticed after the solid had been set aside for only a few hours
